Experimental data from patent US9018248B2, “Fatty acid derivatives of catechins and methods of their use” (Genesis Group Inc., priority 2010, dated 2015).

Key:
[1] = DPPH radical scavenging capacity by EPR; conditions: test compounds 25 μM in ethanol, EPR after 1 min
Experimental: (§1) An ORAC (Oxygen Radical Absorbance Capacity) assay was carried out using a Fluostar Optima plate reader (BMG Labtech, Durham, N.C.) equipped with an incubator and two injector pumps. A modified method for lipophilic antioxidants was followed, in which randomly methylated cyclodextrin (RMCD) was used as water solubility enhancer, as described by Huang et al, J. Agric. Food Chem., 2002, 50, 1815-1821. Trolox standards (6.25-50 μM) and samples (0.25 μM) were dissolved in acetone/water (1:1, v/v) containing 7% RMCD. Fluorescein and […] [2,2′-azobis(2-aminopropane)dihydrochloride] were used as the probe and radical generator, respectively. Twenty microliters of trolox standard or test compound solutions (7% RMCD used as a control) were added into each well of a 96-well black microplate, followed by addition of fluorescein. The plate was incubated at 37° C. for 15 min and then AAPH in buffer was injected into the wells. The conditions used were as follows: 0.3 s position delay, 8 s orbital shaking before each cycle with 4 mm width, 210 s cycle time, and 25 cycles. Fluorescence was measured at an excitation wavelength of 485 nm and emission of 520 nm. A standard curve was plotted and ORAC values for test compounds were obtained as mol of trolox equivalents (TE) per mol of test compound. (3b) Reducing Power The reducing power of EGCG and its derivatives (compounds 1a-1c) was determined according to Oyaizu (1986). One milliliter of test compounds (1 mM in 95% ethanol) was mixed with 2.5 ml of phosphate buffer solution (PBS, 0.2 M, pH 6.6) and 2.5 ml of a 1% solution of potassium ferricyanide, K3Fe(CN)6. The mixture was incubated at 50° C. for 20 min. […] The content was mixed well and the absorbance was recorded at 700 nm. Higher absorbance of the reaction mixture indicates greater reducing power. […] (3c) Metal Chelation The metal chelation capacity was measured following a procedure by Decker E. A. et al., J. Agric. […] The absorbance was measured afterwards at 562 nm. A blank without ferrozine was run for each compound, since the antioxidant-Fe^2+ complex gives a colour that might interfere with the absorbance reading. Metal chelation capacity was calculated using the following equation: % chelation=[1−(Abs.sample−Abs.blank)/Abs.control]×100 where, control was devoid of test compounds, while blank contained no ferrozine. (3d) DPPH Antioxidant activity of the lipophilic EGCG derivatives was ALSO evaluated as DPPH (1,1-diphenyl-2-picrylhydrazyl) radical scavenging capacity using EGCG as the reference. DPPH scavenging capacity of test compounds was determined by EPR (electron paramagnetic resonance) according to Madhujith and Shahidi (16) with slight modifications. […] The spectrum was recorded after 1 min. […]

[2] = ORAC (Oxygen Radical Absorbance Capacity) assay for lipophilic antioxidants; conditions: samples 0.25 μM, 7% RMCD, fluorescein probe
Experimental: as §1

Human LDL = test: Inhibition of copper-induced LDL-cholesterol oxidation; conditions: CuSO4-induced, 37° C., 22 hours
Experimental: Human LDL solution was dialyzed overnight in PBS (10 mM, 0.15M NaCl, pH 7.4) at 4° C. under nitrogen blanket prior to the test. Sample solutions were prepared by dissolving the test compounds in ethanol at concentration of 500 μM. Ten microliters of sample solutions were transferred into a set of Eppendorf tubes, and the solvent was evaporated to dryness under a nitrogen stream. To each tube 0.1 ml of PBS was added, followed by vortexing for 1 min. An aliquot (0.8 ml) of the dialyzed and diluted LDL solution (0.125 mg/ml) was added to each tube, and the contents were mixed well and incubated at 37° C. for 15 min. The reaction was initiated by adding 0.1 ml of CuSO4 (20 μM, previously incubated). A blank containing only sample without LDL or CuSO4 was prepared for each test compound. After incubation of the reaction mixture at 37° C. for 22 hours, the conjugated dienes formed as a result of oxidation were measured spectrophotometrically at 234 nm. […] All absorbances for samples were blank-corrected. Discussion

[3] = Inhibition against UV-induced liposome oxidation; conditions: UV 254 nm, 45 min
Experimental: To prepare liposome MLV, 10 mg of egg yolk PC were dissolved in a small amount of chloroform in a round bottom flask and the solvent was removed using a rotary evaporator followed by nitrogen flush. The thin film on the inner surface of the flask was suspended in 10 ml of PBS (10 mM, pH7.4, 150 mM NaCl) by vortex and sonication, and the emulsion was then repeatedly frozen and thawed for 4 times. The liposomal MLV obtained were diluted by 90 ml of PBS, and an aliquot (750 μL) was transferred into an Eppendorf tube containing 10 μL of test compounds dissolved in ethanol and 240 μL of PBS. The content was mixed well and incubated at 37° C. for 15 min. After incubation, the mixture was exposed to UV irradiation (254 nm) for 45 min. The oxidation was detected by measuring conjugated dienes (CD) spectrophotometically at 234 nm against a blank without liposome (test compounds+PBS). Conjugated diene values were calculated as follows using blank-corrected absorbances. CD(mol/g of PC)=Abs./εLC, where ε is the absorptivity constant (29500 M^−1cm^−1), L is the length of the cuvette (1 cm) and C is the final concentration of PC (g/L). […] Discussion

Row | SMILES | DPPH scavenging [1] | ORAC [2] | Inhibition of LDL-cholesterol oxidation (conjugated diene formation) (Human LDL) | % inhibition of UV-induced liposome oxidation (conjugated dienes) [3]
1 | CCCCCCCCCCCCCCCCCC(=O)Oc1cc(C(=O)OC2Cc3c(O)cc(O)cc3OC2c2cc(OC(=O)CCCCCCCCCCCCCCCCC)c(O)c(OC(=O)CCCCCCCCCCCCCCCCC)c2)cc(OC(=O)CCCCCCCCCCCCCCCCC)c1O (stereo not shown) [Compound 1a, EGCG stearate] | 5.85 mmol trolox eq./mol | 51.56 mol trolox eq./mol | 16.33% | 47.59%
2 | CCC=CCC=CCC=CCC=CCC=CCCCC(=O)Oc1cc(C(=O)OC2Cc3c(O)cc(O)cc3OC2c2cc(OC(=O)CCCC=CCC=CCC=CCC=CCC=CCC)c(O)c(OC(=O)CCCC=CCC=CCC=CCC=CCC=CCC)c2)cc(OC(=O)CCCC=CCC=CCC=CCC=CCC=CCC)c1O (stereo not shown) [Compound 1b] | 4.66 mmol trolox eq./mol | 81.52 mol trolox eq./mol | 11.80% | 3.47%
3 | CCC=CCC=CCC=CCC=CCC=CCC=CCCC(=O)Oc1cc(C(=O)OC2Cc3c(O)cc(O)cc3OC2c2cc(OC(=O)CCC=CCC=CCC=CCC=CCC=CCC=CCC)c(O)c(OC(=O)CCC=CCC=CCC=CCC=CCC=CCC=CCC)c2)cc(OC(=O)CCC=CCC=CCC=CCC=CCC=CCC=CCC)c1O (stereo not shown) [Compound 1c] | 5.09 mmol trolox eq./mol | 84.70 mol trolox eq./mol | 8.18% | 16.22%
4 | O=C(O[C@@H]1Cc2c(O)cc(O)cc2O[C@@H]1c1cc(O)c(O)c(O)c1)c1cc(O)c(O)c(O)c1 [EGCG, Epigallocatechin gallate, reference compound] | 3.13 mmol trolox eq./mol | 14.97 mol trolox eq./mol | 6.53% | 9.53%
